US20040014676A1, “SRC kinase inhibitors useful for treating osteoporosis” (priority 2001, published 2004)

Target: T1, Src kinase (Homo sapiens, UniProt P12931)
T1 construct: purchased Upstate Bioteolnology (sic; Upstate Biotechnology); later HMR stock 27597-019E1 #14-117
Experiment: Phosphorylation assay of Src kinase inhibitors (radiometric, 96 well filter plate)
Format: biochemical
Settings: duplicates, tested in the range of 400-0.098 µM; 10 µM peptide substrate (FIYGAFKKKKNH2), 5 µM unlabeled ATP, room temperature 30 min; read-out: IC50
Experimental: The present invention provides novel compounds of Formulae I through XVIII discussed above. The following compounds which fall within Formulae I through XVIII are characterized by structure, IUPAC name and activity using phosphorylation assay for protein tyrosine Src kinase.
Phosphorylation Assay of Src Kinase Inhibitors
The activity of Src kinase was measured in a 96 well plate phosphorylation assay where the transfer of gamma phosphate from ATP to peptide substrate was measured radiometrically. […] Ki values were determined experimentally for some of the inhibitors. The phosphocellulose filter plates (Millipore catalog #MAPH NOB) were prewet prior to the phosphorylation assay by addition of 100 1 per well of 30 mM MES buffer+0.4 mg/ml BSA. After a 20-minute incubation, the buffer was removed completely via a Millipore vacuum manifold. The phosphorylation assay was then set up in the filter plates in a total volume per well of 60 1. The 60 1 consisted of compound (see concentration ranges above), a 1:100 dilution of Src kinase (originally Upstate Bioteolnology, #14-117; later HMR stock 27597-019E1) or assay buffer alone (for no enzyme control wells), 10 M peptide substrate (FIYGAFKKKKNH2), 5 M unlabeled ATP and a 1:500 dilution of P-ATP (New England Nuclear, catalog #NEG-602H, 2000 Ci/mmol). The reaction was mixed and incubated at room temperature for 30 min. The kinase reactions were stopped by addition of 150 mM H3PO4 and incubated for 10 minutes. The filter plate wells were filtered and washed seven times with 200 1 per well of 150 mM H3PO4. Finally, the filter plate was placed into a Packard plate adapter (Packard catalog #600517B), 35 1 of Microscint-20 (Packard catalog #6013621) was added to each well, the plate was sealed (TopSeal A sealers; Packard catalog #6005185) and counted on a Packard TopCount.

Molecule | IC50 [µM]
NC(=O)CNC(=O)c1cc2ccccc2cc1OCCCCNC(=O)[C@@H](N)Cc1c(F)c(F)c(F)c(F)c1F [Example 43, 3-[[4-[[2(S)-AMINO-3-(2,3,4,5,6- PENTAFLUORO)PHENYL-1-OXO]- PROPYL]AMINO]BUTOXY]- NAPHTHALENE-2- (N-ACETAMIDO)CARBOXAMIDE] | 1.38
NC(=O)CNC(=O)c1cc2ccccc2cc1OCCCCNC(=O)[C@@H](N)Cc1ccc(Br)cc1 [Example 61, 3-[4-[[[1-OXO-2(S)-AMINO-3(4- BROMOPHENYL)]PROPYL]AMINO]- BUTOXY]-NAPHTHALENE-2-(N- ACETAMIDO)CARBOXAMIDE] | 0.5
NC(=O)CNC(=O)c1cc2ccccc2cc1OCCCCNC(=O)C(=C/c1ccc(O)cc1)/C(N)=N/O [Example 150, 3-[[4-[N-[1-OXO-2-[(HYDROXYIMINO)- (AMINO)METHYL]-3-(4-HYDROXY- PHENYL)]]PROP-2-ENYL]AMINO]- BUTOXY]-NAPHTHALENE-2-(N- ACETAMIDO)CARBOXAMIDE] | 16
NC(=O)CNC(=O)c1cc2ccccc2cc1OCCCCNC(=O)C1NCCC1c1ccc(O)cc1 [Example 21, 3-[N-[[[(3-(R)4-HYDROXYPHENYL)- TETRAHYDROPYRROL-2-YL]- CARBONYL]AMINO]BUTOXY]- NAPHTHALENE-2-[N-(2- AMIDOMETHYL)]CARBOXAMIDE] | 4.6
NC(=O)C(CCC(=O)O)NC(=O)c1cc2ccccc2cc1OCCCCNC(=O)[C@@H](N)Cc1ccc(O)cc1 (stereo partly drawn) [Example 12, 3-[4-[[2(S)-AMINO-3-(4-HYDROXY- PHENYL)-1-OXOPROPYL]AMINO]- BUTOXY]-NAPHTHALENE-2-[N- [(AMIDO)(2-CARBOXYEHTYL)- METHYL]]CARBOXAMIDE] | 308
NC(=O)CC(=O)Nc1cc2ccccc2cc1OCCCCNC(=O)[C@@H](N)Cc1ccc(O)cc1 [Compound 151, (2S)-2-amino-N-{4-[3-(2-carbamoylacetylamino)(2-naphthyloxy)]butyl}-3-(4-hydroxyphenyl)propanamide] | 5
CN[C@@H](Cc1ccccc1)C(=O)NCCCCOc1cc2ccccc2cc1C(=O)NCC(N)=O [Example 67, 3-[4-[[(1-OXO-2(S)-METHYLAMINO-3- PHENYL)PROPYL]AMINO]BUTOXY]- NAPHTHALENE-2-(N-ACETAMIDO)- CARBOXAMIDE] | 2.3
C[C@@H](NC(=O)c1cc2ccccc2cc1OCCCCNC(=O)[C@H](N)Cc1ccc(O)cc1)C(N)=O (stereo in doubt) [Example 122, 2-[[4-[[1-OXO-2-AMINO-3-(4-HYDROXY- PHENYL)]PROPYL]AMINO] BUTOXY]- NAPHTHALENE-3-[N-[1(S)-METHYL-2- OXO-2-AMINO)ETHYL]ACETAMIDO]- CARBOXAMIDE] | 12
NC(=O)CNC(=O)c1cc2ccccc2cc1OCCCCNC(=O)C(N)C1Cc2ccccc2C1 (centres unmarked) [Example 52, 3-[4-[N-[1-OXO-2-AMINO-2-(INDAN-2- YL)]ETHYL]-AMINOBUTOXY]- NAPHTHALENE-2-(N-ACETAMIDO)- CARBOXAMIDE] | 1.56
C[N+](C)(C)[C@@H](Cc1ccccc1)C(=O)NCCCCOc1cc2ccccc2cc1C(=O)NCC(N)=O [Example 69] | 14
NC(=O)CNC(=O)c1cc2ccccc2cc1OCCCCNC(=O)[C@@H](N)Cc1ccc(O)c(I)c1 [Example 46, 3-[[4-[[2(S)-AMINO-3(3-IODO-4- HYDROXYPHENYL)-1-OXO]PROPYL]- AMINO]BUTOXY]-NAPHTHALENE-2- (N-ACETAMIDO)CARBOXAMIDE] | 0.31
NC(=O)CNC(=O)c1cc2ccccc2cc1NCCCCNC(=O)[C@H](N)Cc1ccc(O)cc1 (stereo in doubt) [Example 123] | 25
CNC(=O)[C@@H](Cc1ccc(C(=O)OC)cc1)C(=O)NCCCCOc1cc2ccccc2cc1C(=O)NCC(N)=O [Example 147, 3-[[4-[N-[1-OXO-2-(N-METHYLAMINO- CARBONYL)-3-[(4-(METHOXY- CARBONYL)PHENYL]]PROPYL]- AMINO]BUTOXY]-NAPHTHALENE-2- (N-ACETAMIDO)CARBOXAMIDE] | 18
NC(=O)CNC(=O)c1cc2ccccc2cc1OCCCCNC(=O)C1Cc2ccc(O)cc2CN1 (centres unmarked) [Example 20, 3-[N-[[(7-HYDROXY)-1,2,3,4-TETRA- HYDROISOQUINOLIN-3-YL]- CARBONYL]AMINO]BUTOXY]- NAPHTHALENE-2-[N-(2- AMIDOMETHYL)]CARBOXAMIDE] | 3.8
NC(=O)CNC(=O)c1cc2ccccc2cc1OCCCCN1CCNC(Cc2ccccc2)C1=O (stereo in doubt) [Example 28, 3-[4-[(2-OXO-3(S)-BENZYL)-PIPERAZIN- 1-YL]BUTOXY]-NAPHTHALENE-2-(N- ACETAMIDO)CARBOXAMIDE] | 27
3-[4-[[2(S)-AMINO-3-(4-HYDROXY- PHENYL)-1-OXOPROPYL]AMINO]- ETHOXY]-2-[N-ACETAMIDO]- NAPHTHALENECARBOXAMIDE [Example 23] | 3.4
NC(=O)CNC(=O)c1cc2ccccc2cc1OCCCCCCNC(=O)[C@@H](N)Cc1ccc(O)cc1 [Example 95, 3-[6-[[[1-OXO-2(S)-AMINO-3-(4- HYDROXYPHENYL)]PROPYL]AMINO]- HEXOXY]NAPHTHALENE-2-(N- ACETAMIDO)CARBOXAMIDE] | 7.1
NC(=O)CNC(=O)c1c(Cl)c(Cl)cc(Cl)c1OCCCCNC(=O)[C@@H](N)Cc1ccc(O)cc1 [Compound 136, (2S)-2-amino-N-(4-{2-[N-(carbamoylmethyl)carbamoyl]-3,4,6-trichlorophenoxy)butyl)-3-(4-hydroxyphenyl)propanamide] | 200
Cc1nc(-c2ccc(CC(N)C(=O)NCCCCOc3cc4ccccc4cc3C(=O)NCC(N)=O)cc2)no1 (stereo in doubt) [Compound 135, (2S)-2-amino-N-(4-{3-[N-(carbamoylmethyl)carbamoyl](2-naphtyloxy)}butyl)-3-[4-(5-methyl(1,2,4-oxadizol-3-yl))phenyl]propanamide] | 29
NC(=O)CNC(=O)c1cc2ccccc2cc1OCCCCN1CCC[C@@H](c2ccccc2)[C@H](N)C1=O [Example 76, 3-[4-[(2-OXO-3(R)-AMINO-4(S)- PHENYL)HEXAMETHYLENEIMIN-1- YL]BUTOXY]-NAPHTHALENE-2-(N- ACETAMIDO)CARBOXAMIDE] | 6
CNC(=O)C(Cc1ccc(C#N)cc1)C(=O)NCCCCOc1cc2ccccc2cc1C(=O)NCC(N)=O (centres unmarked) [Example 124, N-(4-{3-[N-(carbamoylmethyl)carbamoyl](2-naphthyloxy)}butyl)-2RS-[(4-cyanophenyl)methyl]-N′-methylpropane-1,3-diamide] | 6
CC(C)C[C@H](N)C(=O)NCCCCOc1cc2ccccc2cc1C(=O)NCC(N)=O [Example 15, 3-[4-[[2(S)-AMINO-3-(ISOPROPYL)-1- OXOPROPYL]AMINO]BUTOXY]- NAPHTHALENE-2-[N-(2- AMIDOMETHYL)]CARBOXAMIDE] | 4.8
NC(=O)CNC(=O)c1cc2ccccc2cc1OCCCCNC(=O)[C@@H](N)Cc1ccc(Cl)cc1 [Example 42, 3-[[4-[(2(S)-AMINO-3-(4-CHLORO- PHENYL)-1-OXO)PROPYL]AMINO]- BUTOXY]-NAPHTHALENE-2- (N-ACETAMIDO)CARBOXAMIDE] | 0.88
CC(c1ccc(Cl)c(Cl)c1)[C@H](N)C(=O)NCCCCOc1cc2ccccc2cc1C(=O)NCC(N)=O (stereo partly drawn) [Example 60, 3-[4-[[[2(S)-AMINO-3(3,4-DICHLORO- PHENYL)-1-OXO]BUTYL]AMINO]- BUTOXY]-NAPHTHALENE-2-(N- ACETAMIDO)CARBOXAMIDE] | 1.56
N[C@@H](Cc1ccc(O)cc1)C(=O)NCCCCOc1ccc2ccccc2c1C(=O)NCC(=O)NCCCO [Example 117, 2-[[4-[[1-OXO-2(S)-AMINO-3-(4- HYDROXYPHENYL)]PROPYL]AMINO]BUTOXY]NAPHTHALENE-1-[N-[[(3- HYDROXYPROPYLAMINO)- CARBONYL]METHYL]]CARBOXAMIDE] | 47
NC(=O)CNC(=O)c1cc2cc(Br)ccc2c(Br)c1OCCCCNC(=O)[C@@H](N)Cc1ccc(O)cc1 [Example 105, 1,6-DIBROMO-2-[[4-[[1-OXO-2(S)- AMINO-3-(4-HYDROXYPHENYL)]- PROPYL]AMINO]BUTOXY]- NAPHTHALENE-3-(N-ACETAMIDO)- CARBOXAMIDE] | 20
3-[[[2(S)-AMINO-3-(4-HYDROXY- PHENYL)-1-OXO]PROPYL]AMINO]- BUTOXY]NAPHTHALENE-2-[N- [(AMIDO)[2-(INDOL-3-YL)METHYL]- METHYL]CARBOXAMIDE [Example 29] | 60
COc1ccc2cc(OCCCCNC(=O)[C@@H](N)Cc3ccc(O)cc3)c(C(=O)NCC(N)=O)cc2c1 [Example 106, 3-[[4-[[2(S)-AMINO-3-(4-HYDROXY- PHENYL)-1-OXOPROPYL]AMINO]- BUTOXY]-7-METHOXY- NAPHTHALENE-2-[N-ACETAMIDO]- CARBOXAMIDE] | 2.5
NC(=O)CNC(=O)c1cc2ccccc2cc1OCCCCNC(=O)[C@H](Cc1ccc(O)cc1)NC(=O)c1ccccc1 [Example 17, 3-[4-[[2(S)-(N-BENZOYLAMINO)-3-(4- HYDROXYPHENYL)-1-OXOPROPYL]- AMINO]BUTOXY]-NAPHTHALENE-2- [N-(2-AMIDOMETHYL)]CARBOXAMIDE] | 23
